The results in this text go back to US4647574A, “Hypoglycemic hydantoin derivatives” (Nippon Zoki Pharmaceutical Co., Ltd., priority 1984, dated 1987).

In one test the test system is Blood Glucose. The experiment in a line: Hypoglycemic effect (modified method by Dulin et al.). It is filed as in vivo, rat (Sprague-Dawley-strain male). The conditions noted are these: 2 hours; for Blood Glucose Level: glucose-loaded fasted rats, control 134.6 ± 2.8. The procedure: Groups of 10 Sprague-Dawley-strain male rats (weighing about 250 g each) which had fasted for 18 hours were used for measurement of hypoglycemic effect according to the modified method by Dulin et al. (Dulin et al, Proc. Soc. Expl. Med., 107, 245 (1961)). That is, 0.5 ml/100 g of 20% aqueous solution of glucose was subcutaneously administered into the backs of rats to prevent a decrease in blood glucose level because of the fasting. […] The obtained blood sample was allowed to stand for 30 minutes to complete the coagulation and was centrifuged to obtain the serum. Blood sugar level was measured according to the mutalotase GOD method (Trinder, Ann. Clin. Biochem., vol. 6, p. 24 ([…])).

The test system of another test is serum free fatty acid. The experiment in a line: Hypolipidemic effect: serum free fatty acid. It is filed as in vivo, rat (Wister strain male). The conditions noted are these: 100 mg/kg oral, 2 hours, fasted rats; for Serum Fatty Acid Decrease: vs control; for Serum Fatty Acid Level: control 0.51 ± 0.44. How it is done:
(§1) The test drugs were orally administered to groups of 6 Wisterstrain male rats (each weighing approximately 210-250 g) which had fasted for 20 hours. 2 hours later, the serum was obtained in the same manner as described in (2). Serum triglyceride was measured by GPO-p-chlorophenol colorimetric determination (Richard et al., Clinical Chemistry, vol. 24, p. 1343 (1978)) and serum free fatty acid was measured according to the Acyl CoA Synthetase-Acyl CoA Oxidase method (Shimizu, et al., Biochem. Biophys. Res. Commun., vol. 91, p. 108 (1979)).

Another test relates to Serum Triglyceride. Description: Hypolipidemic effect: serum triglyceride. The class given is in vivo, rat (Wister strain male). The conditions noted are these: 100 mg/kg oral, 2 hours, fasted rats; for Serum Triglyceride Decrease: vs control; for Serum Triglyceride Level: control 33.5 ± 2.9. The procedure: as §1
In the next test the test system is urine sugar. Description: Urine sugar in glucose loaded rats. It is filed as in vivo, rat. The conditions noted are these: 200 mg/kg oral. How it is done: In addition, 200 mg/kg of the compound 1 of the present invention were orally administered to glucose loaded rats and the urine sugar was measured.
The next test has as its system excreted sodium. The experiment in a line: Diuretic effect: excreted sodium in rats (Lipschitz method). It is filed as in vivo, rat (Long-Evans strain male). The conditions noted are these: 20 mg/kg oral, within 1 day. The procedure: 20 mg/kg of the compound 1 of the present invention were orally administered to Long-Evans strain male rats (weighing about 130-150 g each), and the total amount of excreted sodium within 1 day was then measured according to the method by Lipschitz (JPFT, Vol. 79, p. 97 (1943)).

The subject of another test is sodium in urine. Description: Diuretic effect: sodium in urine in mice. It is filed as in vivo, mouse. The conditions noted are these: subcutaneous, up until 2 hours after the administration.
The mark [1] stands for this setting: Rattus norvegicus, 50 mg/kg oral, vs control, read-out: Blood Glucose Decrease.
[2] abbreviates: Rattus norvegicus, 200 mg/kg oral, vs control, read-out: Blood Glucose Decrease.

Take `CCCCNC(=O)NS(=O)(=O)c1ccc(C)cc1` [Tolubutamide, reference compound]: the “Blood Glucose Level” value in the test with Blood Glucose (50 mg/kg oral) was found to be 63.4 ± 4.7 mg/dL; in the test with Blood Glucose (100 mg/kg oral), 53.0 ± 4.5 mg/dL. Moreover, in the test with Blood Glucose (setting [1]), the inhibition in vivo at 50 mg/kg is 52.9%. Further, in the test on Blood Glucose (Rattus norvegicus, 100 mg/kg oral, vs control, read-out: Blood Glucose Decrease), the inhibition in vivo at 100 mg/kg worked out at 60.6%.

As to `O=C1NC(=O)N(C2CCCC2)C1O` (stereo not shown) [compound 15, 5-hydroxy-1-cyclopentylhydantoin], in the test on Blood Glucose (200 mg/kg oral), the “Blood Glucose Level” value is 85.3 ± 5.9 mg/dL. In addition, the inhibition in vivo at 200 mg/kg with Blood Glucose (setting [2]) is 36.6%.

In the case of `CCCCN1C(=O)NC(=O)C1O` (stereo not shown) [compound 4, 5-hydroxy-1-butylhydantoin], in the test with serum free fatty acid, the “Serum Fatty Acid Decrease” value turned out to be 41% and the “Serum Fatty Acid Level” value is given as 0.30 ± 0.01 mEq/dl. In the test with Serum Triglyceride, the “Serum Triglyceride Decrease” value is reported as 54% and the “Serum Triglyceride Level” value was found to be 15.3 ± 2.4 mg/dL. Also, in the test with Blood Glucose (200 mg/kg oral), the “Blood Glucose Level” value was 82.6 ± 3.6 mg/dL. Also, in the test with Blood Glucose (setting [2]), the inhibition in vivo at 200 mg/kg worked out at 38.6%.

With `CN1C(=O)NC(=O)C1O` (stereo not shown) [compound 1, 5-hydroxy-1-methylhydantoin], in the test on serum free fatty acid, the “Serum Fatty Acid Decrease” value was determined as 66% and the “Serum Fatty Acid Level” value is recorded as 0.17 ± 0.01 mEq/dl. The “urine sugar, difference between medicated and control groups” value in the test with urine sugar was “No difference was found between the medicated and control groups”. Further, the “total amount of excreted sodium, ratio to control group” value in the test with excreted sodium is reported as 1.8 times. Besides, in the test on Serum Triglyceride, the “Serum Triglyceride Decrease” value was 68% and the “Serum Triglyceride Level” value worked out at 10.7 ± 1.3 mg/dL. The “Blood Glucose Level” value in the test on Blood Glucose (25 mg/kg oral) was determined as 89.0 ± 4.1 mg/dL. For the same molecule, the “Blood Glucose Level” value in the test on Blood Glucose (50 mg/kg oral) came to 87.1 ± 3.3 mg/dL. The “Blood Glucose Level” value in the test on Blood Glucose (200 mg/kg oral) was 81.8 ± 4.0 mg/dL. For the same molecule, the inhibition in vivo at 25 mg/kg in the test with Blood Glucose (Rattus norvegicus, 25 mg/kg oral, vs control, read-out: Blood Glucose Decrease) was found to be 33.9%. In addition, the inhibition in vivo at 50 mg/kg in the test with Blood Glucose (setting [1]) came out at 35.3%. Besides, the inhibition in vivo at 200 mg/kg in the test with Blood Glucose (setting [2]) was 39.2%. The “increase in the amount of sodium in urine as compared with the control group” value in the test on sodium in urine stood at 50.5%.

For the molecule `CN1C(=O)NC(O)C1=O` (stereo not shown) [compound 2, 5-hydroxy-3-methylhydantoin], in the test with serum free fatty acid, the “Serum Fatty Acid Decrease” value is on record as 45% and the “Serum Fatty Acid Level” value amounted to 0.28 ± 0.04 mEq/dl. Moreover, in the test on Serum Triglyceride, the “Serum Triglyceride Decrease” value is given as 59% and the “Serum Triglyceride Level” value was found to be 13.8 ± 0.9 mg/dL. Besides, the “Blood Glucose Level” value in the test on Blood Glucose (200 mg/kg oral) stood at 115.5 ± 3.9 mg/dL. Further, the inhibition in vivo at 200 mg/kg with Blood Glucose (setting [2]) is 14.2%.

Consider `COC1C(=O)NC(=O)N1C` (stereo not shown) [compound 5, 5-methoxy-1-methylhydantoin], for which the “Blood Glucose Level” value in the test with Blood Glucose (200 mg/kg oral) was determined as 109.4 ± 2.3 mg/dL. In addition, the inhibition in vivo at 200 mg/kg in the test with Blood Glucose (setting [2]) worked out at 18.7%.

For `O=C1NC(=O)N(C2CCCCC2)C1O` (stereo not shown) [compound 16, 5-hydroxy-1-cyclohexylhydantoin], the “Blood Glucose Level” value in the test on Blood Glucose (200 mg/kg oral) was determined as 89.6 ± 2.7 mg/dL. Moreover, the inhibition in vivo at 200 mg/kg in the test on Blood Glucose (setting [2]) stood at 33.4%.

As to `CN1CC(=O)NC1=O` [compound 23, 1methylhydantoin], in the test on serum free fatty acid, the “Serum Fatty Acid Decrease” value is listed as 43% and the “Serum Fatty Acid Level” value was determined as 0.29 ± 0.01 mEq/dl. Moreover, in the test on Serum Triglyceride, the “Serum Triglyceride Decrease” value was found to be 45% and the “Serum Triglyceride Level” value came out at 18.5 ± 1.8 mg/dL. For the same molecule, in the test on Blood Glucose (200 mg/kg oral), the “Blood Glucose Level” value worked out at 106.9 ± 3.9 mg/dL. Also, in the test with Blood Glucose (setting [2]), the inhibition in vivo at 200 mg/kg amounted to 20.6%.

As for `CCN1C(=O)NC(=O)C1O` (stereo not shown) [compound 3, 5-hydroxy-1-ethylhydantoin], the “Blood Glucose Level” value in the test with Blood Glucose (200 mg/kg oral) was determined as 76.0 ± 3.8 mg/dL. Moreover, the inhibition in vivo at 200 mg/kg in the test with Blood Glucose (setting [2]) turned out to be 43.5%.
